Source: US7456197B2, “Pyridinium cationic lipids as gene transfer agents” (The Texas A&M University System, priority 2003, dated 2008)
Entries after “also recorded” stand apart in the source; their conditions may differ.

How the values were obtained:
[1] = Critical (phase transition) temperature Tc by differential scanning calorimetry; assay type: physicochemical; conditions: for Tc (critical temperature), Pure: pure lipid; for Tc (phase transition temperature): lipids 21 and 25, DSC, heating rate 5° C./minute
Method: General. Melting points for the diols and the phase transition temperature Tc for the cationic lipids were determined by differential scanning calorimetry (DSC), using a TA-Instruments Q100 DSC, and a heating rate of 5° C./minute. The IR spectra were recorded on a Nicolet Avatar 360 FTIR spectrophotometer in the range 650-4000 cm^−1 using a ZnSe—attenuated total reflectance (ATR) accessory. The compounds were solved in a small amount of solvent (MeOH for the diols, CHCl3 for the lipids), and the resulted solutions were left to evaporate to dryness on the surface of the ZnSe crystals of the ATR accessory. The NMR spectra were recorded at ≈303 K with a Varian Inova spectrometer equipped with a 5 mm indirect detection probe, operating at 500 MHz for ^1H-NMR and at 125 MHz for ^13C-NMR. Chemical shifts are reported as δ values, using TMS as internal standard for proton spectra and the solvent resonance for carbon spectra. Assignments were made based on signal intensity, selective decoupling, COSY (^1H-^1H) and HETCOR (^1H-^13C) sequences. Elemental analyses were performed by combustion, using a Perkin Elmer 2400 Series II CHNS analyser.
(§1) Dioleoylphosphatidylethanolamine (DOPE), cholesterol (CHOL), N-(2,3-dioleoyloxypropyl)-N,N,N-trimethylammonium chloride (DOTAP) were commercial products. The purity of the lipids was checked by thin layer chromatography and also by differential scanning calorimetry (DSC), which was also used for determining the critical temperature Tc. For the preparation of the liposomes a protocol optimized for this type of compounds was adopted as follows. The cationic lipid (with or without helper lipid) was dissolved in chloroform/methanol (2/1, v/v) to reach a final concentration of 1 mM for the charged species. From this stock solution 50 μL were aliquoted in a 1 mL tube and the solvent was evaporated in a SpeedVac evaporator, under vacuum, for 1 h. The dried lipid film was prepared by removing the traces of organic solvent in a dessicator, over Drierite®, under vacuum, overnight. The film was hydrated with 500 μL sterile phosphate buffer saline (PBS) the tube was purged with sterile N2, and vortexed for 1 minute. The liposomes were generated by sonicating the tube in a water bath sonicator for 5-30 minutes at 62° C. and at 37° C. for DOTAP. After sonication the preparations were allowed to reach room temperature.
Materials and Methods. Melting points for the diols, acetates and ketals were determined on a Boetius heating plate microscope and are uncorrected. For the cationic lipids 21 and 25 the phase transition temperature Tc was determined by differential scanning calorimetry (DSC), using a TA-Instruments Q100 DSC, and a heating rate of 5° C./minute. The IR spectra were recorded on a Nicolet Avatar 360 FTIR spectrophotometer, in the range 650-4000 cm^−1, using a ZnSe—attenuated total reflectance (ATR) accessory. The compounds were solved in a small amount of solvent (MeOH for the diols, CHCl3 for the esters), the resulted solutions being left to evaporate to dryness on the surface of the ZnSe crystals of the ATR accessory. This technique was imposed by the poor results obtained in transmission mode for some of the compounds, due to the lack of crystallization, hygroscopicity and other problems related with working with KBr pellets. The NMR spectra were recorded at ≈303 K with a Varian Gemini 300BB spectrometer operating at 300 MHz for ^1H and at 75 MHz for ^13C. Chemical shifts are reported as δ values, using TMS as internal standard for proton spectra and the solvent resonance for carbon spectra: 77.00 ppm in CDCl3, 39.50 ppm in DMSO-d6, the line from 123.50 ppm in pyridine-d5, 62.80 ppm in nitromethane-d3, 30.10 ppm in dimethylformamide-d7. Assignments were made based on signal intensity, selective decoupling and COSY (^1H-^1H) and HETCOR (^1H-^13C) sequences. Nitrogen elemental analysis was performed by combustion, mixing the samples with small amounts of quartz sand.

[2] = Cationic liposome size by dynamic light scattering; assay type: physicochemical
Method: (§2) The three series of cationic lipids newly synthesized were assessed for their transfection efficiency in vitro, using the experimental conditions optimized in a previous study.^23 Essentially the cationic lipids were mixed with cholesterol at a 1:1 molar ratio, dissolved in chloroform/methanol and dried under vacuum to generate a lipid film. The dried lipid film was hydrated with sterile phosphate buffer isotonic saline with pH=7.4 (PBS) and sonicated to yield cationic liposomes. The resulting liposomal solution was allowed to react with a DNA solution to form the final cationic lipid-DNA complexes (lipoplexes), which were assessed for transfection efficiency using different cell cultures. We used a pGL3 plasmid (Promega, Madison, Wisc.), encoding a firefly luciferase gene under the control of the constitutively active SV40 promoter as the reporter for the transfection efficiency. An optimal^23 electrostatic charge ratio cationic lipid/DNA of 2:1 was used in all preparations. […] The ability of these new cationic lipids to generate relatively small cationic liposomes could be attributed to the relatively large curvature radius induced in the bilayer by the bulky pyridinium cationic head.
as §1

[3] = test system: lung cancer cell line NCI-H23; experiment: Luciferase (pGL3) transfection efficiency of lipoplexes, NCI-H23; assay type: cell-based, human; conditions: for transfection efficiency (in words): cholesterol as helper lipid 1:1, charge ratio lipid/DNA 2:1; for transfection efficiency, counterion study: 5Myr/Chol 1:1, PBS, sonicated two sequences of 15 minutes, FIG. 5
Method: as §2, §1
For generating the lipoplexes, 1.4-2.8 μL plasmid DNA solution (0.5 μg/μL) was diluted with 100 μL Optimem®. A liposome solution was prepared separately by diluting the initial liposomal stock solution (0.1 mM in cationic lipid) with Optimem® in specified proportions, to reach a final volume of 50 μL. Over this liposome solution 50 μL of the DNA stock solution was added, the tube was incubated for 30 minutes at room temperature and then the content diluted with 500 μL Optimem® (final volume of the lipoplex stock solution: 600 μL).
The lipoplexes was tested for their transfection properties over five different cancer cell lines—breast carcinoma (MCF-7 and MDA-Mb231), lung carcinoma (NCI-H23), prostate carcinoma (DU-145) and brain carcinoma (SWB-95). The cells were maintained in 10% fetal bovine serum (FBS)—enriched RPMI 1640 at 37° C. and 5% CO2 in a humidified atmosphere. Twenty-four hours prior to transfection the cells were transferred in 96-wells microtiter plate at a density of 20,000 cells/well. Each well received 100 μL medium and the plate was incubated in the same conditions. All experiments were done in triplicate or quadruplicate.
Immediately before transfection the medium was removed from each well and the cells were briefly washed with 200 μL sterile PBS. After removal of the PBS each well received 100 μL lipoplex stock solution and the plate was placed in the incubator for 1 hour. Then, 100 μL medium was added to each well and the plate was incubated for 24 hours. […]

cancer cell line NCI-H23 = experiment: WST-1 viability assay of transfected cells; assay type: cell-based, human; conditions: NCI-H23 transfected with lipoplexes, Chol 1:1; FIG. 6
Method: FIG. 6. Viability assay results for the cancer cell line NCI-H23 transfected with 5AMyr-5EMyr and DOTAP (Cl^−)-based lipoplexes. The other characteristics were the same as in the transfection experiment represented in FIG. 5.
In order to assess the cytotoxicity associated with every anion, a WST-1^28 viability assay was conducted in parallel.

[4] = cholesterol at 1:1 molar ratio to cationic lipid
[5] = molar ratio of cholesterol to lipid halved

| Compound | Tc (critical temperature), Pure [1] | Tc (critical temperature), With cholesterol (1:1 molar ratio) ([1]; 1:1 molar ratio) | transfection efficiency (in words) [3] | further results |
| --- | --- | --- | --- | --- |
| CCCCCCCC/C=C\CCCCCCCC(=O)OCC(C[n+]1c(C)cc(C)cc1C)OC(=O)CCCCCCC/C=C\CCCCCCCC.F[P-](F)(F)(F)(F)F (stereo not drawn) [Lipid 3AOle, 1-(2,3-dioleoyloxypropyl)-2,4,6-trimethylpyridinium hexafluorophosphate] | 67.9 °C | 58.5 °C | secondary peak | average size of the cationic vesicles [2, 4]: 113 nm; average size of the cationic vesicles [2, 5]: 103 nm |
| CCCCCCCCCCCCCC(=O)OCC(C[n+]1c(C)cc(C)cc1C)OC(=O)CCCCCCCCCCCCC.F[P-](F)(F)(F)(F)F (stereo not drawn) [Lipid 3AMyr, 1-(2,3-dimyristoyloxypropyl)-2,4,6-trimethylpyridinium hexafluorophosphate] | 121.3 °C | 112.5 °C | highest transfection peaks | Tc (critical temperature), With DOPE (1:1 molar ratio) ([1]; with DOPE, 1:1 molar ratio): 107.7 °C; average size of the cationic vesicles [2, 4]: 132 nm; average size of the cationic vesicles [2, 5]: 89 nm |
| CCCCCCCCCCCCCC(=O)OCC(COC(=O)CCCCCCCCCCCCC)[n+]1c(C)cc(C)cc1C.[O-][Cl+3]([O-])([O-])[O-] [Lipid 5BMyr, 1-(1,3-dimyristoyloxypropane-2-yl)-2,4,6-trimethylpyridinium perchlorate] | 60.2 °C | 58.4 °C | – | transfection efficiency, counterion study [3]: most efficient lipoplexes; cytotoxicity (WST-1 viability) (cancer cell line NCI-H23): more cytotoxic |
| CCCCCCCCCCCC(=O)Oc1ccc(CC[n+]2c(C)cc(C)cc2C)cc1OC(=O)CCCCCCCCCCC.F[P-](F)(F)(F)(F)F [Lipid 7ALau, 1-(3,4-dilauroyloxyphenylethyl)-2,4,6-trimethylpyridinium hexafluorophosphate] | 140.7 °C | 126.9 °C | best transfection efficiency | transfection efficiency relative to another derivative of series 7 ([3]; cholesterol 1:1, FIG. 2): about five times more active than the decanoyl derivative 7ACpc; also recorded: about ten times more efficient than the oleoyl derivative 7AOle |
| CC(=O)OCC(COC(C)=O)[n+]1c(C)cc(C)cc1C.F[B-](F)(F)F | – | – | – | melting point: 110 to 111 °C |
| CCCCCCCCCCCC(=O)OCC(C[n+]1c(C)cc(C)cc1C)OC(=O)CCCCCCCCCCC.F[P-](F)(F)(F)(F)F (stereo not drawn) [Lipid 3ALau, 1-(2,3-dilauroyloxypropyl)-2,4,6-trimethylpyridinium hexafluorophosphate] | 114.0 °C | 106.7 °C | – | – |
| CCCCCCCC/C=C\CCCCCCCC(=O)OCC(COC(=O)CCCCCCC/C=C\CCCCCCCC)[n+]1c(C)cc(C)cc1C.F[P-](F)(F)(F)(F)F [Lipid 5AOle, 1-(1,3-dioleoyloxypropane-2-yl)-2,4,6-trimethylpyridinium hexafluorophosphate] | 17.0 °C | 31.0 °C | low transfection efficiency | – |
| CCCCCCCCCCCCCC(=O)OCC(COC(=O)CCCCCCCCCCCCC)[n+]1c(C)cc(C)cc1C.F[B-](F)(F)F [Lipid 5CMyr, 1-(1,3-dimyristoyloxypropane-2-yl)-2,4,6-trimethylpyridinium tetrafluoroborate] | 58.4 °C | 55.2 °C | – | cytotoxicity (WST-1 viability) (cancer cell line NCI-H23): minimum cytotoxicity |
| CCCCCCCCCCCCCCCCCC(=O)OCC(COC(=O)CCCCCCCCCCCCCCCCC)[n+]1c(C)cc(C)cc1C.F[B-](F)(F)F [Lipid 25AbS, 1-(1,3-Distearoyloxypropane-2yl)-2,4,6-trimethylpyridinium tetrafluoroborate] | – | – | – | Tc (phase transition temperature) [1]: 73 °C |
| CC(=O)OCC(C[n+]1c(C)cc(C)cc1C)OC(C)=O.F[B-](F)(F)F (stereo not drawn) | – | – | – | melting point: 119 to 120 °C |
| CCCCCCCCCCCCCCCC(=O)OCC(COC(=O)CCCCCCCCCCCCCCC)[n+]1c(C)cc(C)cc1C.[O-][Cl+3]([O-])([O-])[O-] [Lipid 25AaP, 1-(1,3-Dipamitoyloxypropane-2-yl)-2,4,6-trimethylpyridinium perchlorate] | – | – | – | Tc (phase transition temperature) [1]: 66 °C |
| CCCCCCCCCCCCCC(=O)OCC(COC(=O)CCCCCCCCCCCCC)[n+]1c(C)cc(C)cc1C.[I-] [Lipid 5EMyr, 1-(1,3-dimyristoyloxypropane-2-yl)-2,4,6-trimethylpyridinium iodide] | 60.8 °C | 80.1 °C | – | transfection efficiency, counterion study [3]: followed by the hexafluorophosphate 5AMyr, chloride 5DMyr, tetrafluoroborate 5CMyr, and iodide 5EMyr; cytotoxicity (WST-1 viability) (cancer cell line NCI-H23): more cytotoxic |
| CCCCCCCCCCCCCCCC(=O)OCC(C[n+]1c(-c2ccccc2)cc(-c2ccccc2)cc1-c1ccccc1)OC(=O)CCCCCCCCCCCCCCC.[O-][Cl+3]([O-])([O-])[O-] (stereo not drawn) [Lipid 21BaP, 1-(2,3-Dipalmitoyloxypropyl)-2,4,6-triphenylpyridinium perchlorate] | – | – | – | Tc (phase transition temperature) [1]: 134 °C |
